Source: the supplement of paper PMC10307832

Assays:
Experiment in all cases: relative viability (nuclei count vs DMSO), 5 days (fraction); higher = more cells survive
BGJ398 + Dasatinib = compound: CCN1CCN(c2ccc(Nc3cc(N(C)C(=O)Nc4c(Cl)c(OC)cc(OC)c4Cl)ncn3)cc2)CC1 [BGJ398] + Cc1nc(Nc2ncc(C(=O)Nc3c(C)cccc3Cl)s2)cc(N2CCN(CCO)CC2)n1 [Dasatinib] (partner 0.075 µM)
Summary of the method: (§1)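 The day after seeding in 1536-well plates, lung cancer cell lines were treated by pin tool with a single drug, or with a fixed anchor-drug dose together with five library-drug doses (not always all listed) in √10 steps. After 5 days, a combined fix-and-stain solution (final 0.05% Triton X-100, 1% formaldehyde, 1 ug/ml Hoechst) was added. Nuclei counted on 4× images gave relative viability as treated counts over vehicle counts, reported as the median of duplicate plates.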

[1] = compound: C1=CC2=NC=CN=C2C=C1/C=C/3\C(=O)NC(=O)S3 + Nc1ncn([C@H]2C[C@H](O)[C@@H](CO)O2)c(=O)n1 [Decitabine] (partner 2 µM)
Summary of the method: as §1

BGJ398 + Luminespib = compound: CCN1CCN(c2ccc(Nc3cc(N(C)C(=O)Nc4c(Cl)c(OC)cc(OC)c4Cl)ncn3)cc2)CC1 [BGJ398] + CCNC(=O)c1noc(-c2cc(C(C)C)c(O)cc2O)c1-c1ccc(CN2CCOCC2)cc1 [Luminespib] (partner 0.01 µM)
Summary of the method: as §1

[2] = compound: C1=CC2=NC=CN=C2C=C1/C=C/3\C(=O)NC(=O)S3 + CC(C)C[C@H](NC(=O)[C@H](Cc1ccccc1)NC(=O)c1cnccn1)B(O)O [Bortezomib] (partner 0.002 µM)
Summary of the method: as §1

Cell Line	relative viability (BGJ398 + Dasatinib; first compound 0.01 µM)	relative viability (BGJ398 + Dasatinib; first compound 0.03162 µM)	relative viability (BGJ398 + Dasatinib; first compound 0.1 µM)	relative viability (BGJ398 + Dasatinib; first compound 0.3162 µM)	relative viability (BGJ398 + Dasatinib; first compound 1 µM)	relative viability ([1]; first compound 0.02 µM)	relative viability ([1]; first compound 0.06325 µM)	relative viability ([1]; first compound 0.2 µM)	relative viability ([1]; first compound 0.6325 µM)	relative viability ([1]; first compound 2 µM)	relative viability (BGJ398 + Luminespib; first compound 0.01 µM)	relative viability (BGJ398 + Luminespib; first compound 0.03162 µM)	relative viability (BGJ398 + Luminespib; first compound 0.1 µM)	relative viability (BGJ398 + Luminespib; first compound 0.3162 µM)	relative viability (BGJ398 + Luminespib; first compound 1 µM)	relative viability ([2]; first compound 0.02 µM)	relative viability ([2]; first compound 0.06325 µM)	relative viability ([2]; first compound 0.2 µM)	relative viability ([2]; first compound 0.6325 µM)	relative viability ([2]; first compound 2 µM)
LXF-289	0.194	0.218	0.184	0.254	0.156	0.357	0.374	0.334	0.379	0.389	0.668	0.643	0.578	0.634	0.657	0.977	0.985	1.05	0.941	1.02
NCI-H23	0.776	0.834	0.844	0.792	0.748	0.329	0.357	0.322	0.286	0.3	0.228	0.213	0.203	0.22	0.189	0.954	1.37	1.27	0.843	0.678
NCI-H322M	0.268	0.227	0.227	0.262	0.236	0.693	0.776	0.798	0.665	0.692	0.887	0.744	0.848	0.788	0.85	1.18	1.1	1.26	1.19	0.973
NCI-H441	0.577	0.83	0.542	0.672	0.607	0.246	0.284	0.251	0.23	0.287	0.453	0.346	0.318	0.383	0.371	0.272	0.289		0.403	0.494
NCI-H460	0.479	0.523	0.46	0.522	0.498	0.524	0.389	0.515	0.459	0.534	0.0344	0.0414	0.0281	0.0308	0.0303	1.01	1.05	1.03	0.932	0.942
NCI-H520	0.138	0.177	0.138	0.142	0.146	0.481	0.545	0.482	0.436	0.562	0.205	0.235	0.234	0.205	0.203	0.793	0.632	0.538	0.489	0.657
NCI-H596	0.515	0.49	0.576	0.506	0.474	0.886	0.954	1.09	0.972	1.72	1.07	1.01	0.95	0.795	0.768	1.36	1.06	1.17	0.876	
NCI-H647	0.164	0.188	0.178	0.178	0.0946	0.339	0.458	0.382	0.432	0.488	0.138	0.107	0.157	0.184	0.176	1.1	1.16	1.11	0.72	0.951
